Source: US11926576B1, “4,4′-naphthalene-1,5-diylbis(diazene-2,1-diyl)dibenzene-1,2-diol as an antioxidant compound” (KING FAISAL UNIVERSITY, priority 2023, dated 2024)

Test: DPPH radical scavenging antioxidant test
Format: biochemical
Details: 517 nm; for Inhibition (radical scavenging inhibition): compound 3 μM in ethanol, 0.2 mL DPPH (0.75 mM), 30 min incubation in the dark
Description: The antioxidant properties of the 4,4′-naphthalene-1,5-diylbis(diazene-2,1-diyl)dibenzene-1,2-diol were studied by adding 0.2 mL DPPH (0.75 mM)) to compound 4,4′-naphthalene-1,5-diylbis(diazene-2,1-diyl)dibenzene-1,2-diol (III) (3 μM) in ethanol. After 30 min of incubation in the dark, the absorbance was read against a blank at 517 nm. Ascorbic acid (vitamin C) was used as standard antioxidants (positive control). A blank sample was prepared by 0.2 ml of DPPH in 3 ml ethanol. A negative control sample was run using ethanol instead of the sample. The radical scavenging inhibition was calculated using the following equation: […]

| Compound | Inhibition (radical scavenging inhibition) [%] | antioxidant potential (DPPH) compared to vitamin C (DPPH in vitro test, vitamin C as positive control) |
| --- | --- | --- |
| O=C1O[C@H]([C@@H](O)CO)C(O)=C1O [vit c, Ascorbic acid, reference compound] | 74 | – |
| Oc1ccc(/N=N/c2cccc3c(/N=N/c4ccc(O)c(O)c4)cccc23)cc1O [Product III, 4,4′-naphthalene-1,5-diylbis(diazene-2,1-diyl)dibenzene-1,2-diol] | 50 | high potential as an antioxidant compared to vitamin C |
